Reference: patent publication US20160051567A1, “PREVENTION AND TREATMENT OF KIDNEY DAMAGE” (METSELEX, INC., priority 2013, published 2016)
Entries after “also recorded” stand apart in the source; their conditions may differ.

Legend:
caspase-9 [1] = experiment: Western blot for active caspase-9 in kidney after AKI; type: in vivo; details: rat kidney after AKI, Western blot with densitometry, p<0.01
Procedure: (§1) Rat model of AKI: All experiments were performed in accordance with the Institutional Animal Care and Use Committee. Six to eight week old Sprague-Dawley rats were anaesthetized by isoflurane gas, a midline abdominal incision was made, and bilateral renal pedicles were clamped for 45 minutes maintaining body temperature at 37° C. After removing the clamps, the abdomen was closed in two layers by using 4-0 absorbable sutures and Reflex 9 mm clips. Blood samples were obtained daily by tail vein puncture. Blood urea levels were measured by the improved Jung method using the QuantiChrom™ Urea Assay Kit as per manufacturer's protocol. Kidneys were harvested five days following surgery.
(§2) Administration of TUDCA: 200 mg/mL of TUDCA (Sigma) was dissolved in phosphate buffered saline at pH 7.5. […]
(§3) Protein extraction: Frozen kidney tissue was ground in liquid nitrogen using a pestle and mortar. […] The amount of protein present in the solution was quantified by the Bicinchoninic Acid Protein Assay kit as per manufacturer's protocol.
(§4) Western blot analysis: 20 μg of protein was mixed with SDS-PAGE sample buffer, boiled for 5 minutes, electrophoresed on a 12% Tris-HCl SDS-PAGE gel for 1 hour at 200 V, and electroblotted onto a nitrocellulose membrane. […] The immunoblot was detected using SuperSignal West Femto Maximum Sensitivity Substrate Kit. […]

caspase-12 = experiment: Western blot for active caspase-12 in kidney after AKI; type: in vivo; details: rat kidney after AKI, TUDCA- vs vehicle-treated rats
Procedure: as §1, §2, §3, §4

ERK1/2 = experiment: Western blot for ERK1/2 in kidney after AKI; type: in vivo; details: rat kidney after AKI, vs controls, p=0.29
Procedure: as §1, §2, §3, §4

JNK [2] = experiment: Western blot for p-JNK in kidney after AKI; type: in vivo; details: rat kidney after AKI, TUDCA vs vehicle group
Procedure: as §1, §2, §3, §4

caspase-9 [3] = experiment: Caspase-9 activity assay in RPTE cells after cryopreservation injury; type: cell-based, human; details: 100 μM and 150 μM, p<0.05
Procedure: (§5) Cell culture: RPTE cells were grown in Renal Epithelial Cell Basal Medium (REBM) with full supplements at 37° C. in 5% CO2 incubator as per supplier's instructions. RPTE cells were able to proliferate for 6-8 passages under the culture conditions.
Cryopreservation injury: We have utilized a published cell culture model of cryopreservation injury. In brief, RPTE cells were grown to 80% confluence in the complete medium containing TUDCA or vehicle. The complete medium was then replaced with University of Wisconsin solution containing TUDCA or vehicle. The culture plates were subsequently incubated in a temperature-regulated refrigerator at 4° C. for 48 hours. To simulate warm reperfusion phase of kidney transplantation, University of Wisconsin solution was replaced with complete medium containing TUDCA or vehicle, and cells were cultured for an additional 24 hours at 37° C. We used 100 μM or 150 μM of TUDCA for these experiments.
Caspase-9 Assay: The caspase-9 activity was measured in RPTE cells using Caspase-9 Assay kit. RPTE cells were suspended in 50 μL of chilled Cell Lysis Buffer and incubated on ice for 10 minutes. Subsequently, 50 μL of 2× Reaction Buffer and 5 μL of 1 mM LEHD-AFC substrate was added to each sample and the mixtures were incubated at 37° C. for 2 hours. The caspase-9 activity was quantified by measuring […].

procaspase-12 = experiment: Western blot for procaspase-12 in RPTE cells after cryopreservation injury; type: cell-based, human
Procedure: as §5
(§6) Cryopreservation injury: We have utilized a published cell culture model of cryopreservation injury. In brief, RPTE cells were grown to 80% confluence in the complete medium containing TUDCA or vehicle. The complete medium was then replaced with University of Wisconsin solution containing TUDCA or vehicle. The culture plates were subsequently incubated in a temperature-regulated refrigerator at 4° C. for 48 hours. […]
as §3, §4

JNK [4] = experiment: Western blot for JNK in RPTE cells after cryopreservation injury; type: cell-based, human; details: 100 and 150 μM
Procedure: as §5, §6, §3, §4

p38 = experiment: Western blot for p38 in RPTE cells after cryopreservation injury; type: cell-based, human; details: 100 and 150 μM
Procedure: as §5, §6, §3, §4

[5] = TUDCA over UDCA; cited from earlier work

SMILES: C[C@H](CCC(=O)NCCS(=O)(=O)O)[C@H]1CC[C@H]2[C@@H]3[C@@H](O)C[C@@H]4C[C@H](O)CC[C@]4(C)[C@H]3CC[C@]12C [TUDCA, tauroursodeoxycholic acid]
- activation of caspase-9 (mitochondrial pathway of apoptosis) (caspase-9 [1]): significantly inhibited
- activation of caspase-12 (ER-stress pathway) (caspase-12): no significant difference
- activation of ERK1/2 (ERK1/2): increased ERK1/2 levels in two out of three rats; also recorded: increased activation of ERK1/2 in the TUDCA group, although without statistical significance
- amount of p-JNK (JNK [2]): No difference
- caspase-9 activation after cryopreservation injury (caspase-9 [3]): significantly inhibited
- activation of procaspase-12 (ER-stress pathway) (procaspase-12): no effect
- effect on JNK (JNK [4]): no effect
- effect on p38 (p38): no effect
- solubility at physiological pH compared with UDCA [5]: higher solubility at physiological pH
